Key:
[1] = system: bFGFR1 or β1 integrin; assay: Western blot of protein molecular mass in non-ECs; format: cell-based; details: 400 μM and 2 mM
Description: Cells were allowed to reach 80% confluency in 12-well plates. […] At various time points, plates were taken out of the incubator and kept on ice. Cell monolayers were first washed once with ice-cold PBS before lysis with 250 μl of Pierce RIPA buffer (ThermoFisher Scientific, Rockford, IL) or use 50 mM Tris-HCl (pH 7.6), 150 mM NaCl, 10% Glycerol, 1% NP-40 containing protease/Phosphatase inhibitor cocktail (100×) (Cell signaling, #5872). Lysates were collected and mixed with 4×Bolt LDS Sample Buffer (Novex, Carlsbad, CA) in the presence of Halt protease inhibitors and phosphatase inhibitor cocktail (ThermoFisher scientific, #NP0007). The samples were subjected to SDS-PAGE (Bolt 4-12% Bis-Tris Plus, Invitrogen) using Bolt MES SDS running buffer or NuPAGE 3-8% Tris-Acetate gel using Tris-Acetate SDS running buffer (Novex). HUVECs (passage 6-8) were plated in EBM-2 basal medium (Lonza) with 0.2% FBS. […] Equal amounts of protein lysates were analyzed by SDS-PAGE and blotted with the indicated antibodies. Proteins were transferred using Tris-Glycine buffer with 20% Methanol (Proteonomics grade) (Apex BioResearch Products). Membranes were first incubated with 5% milk in TBST, pH 7.6 (TEKnova, Hollister, CA), followed by blotting with primary and secondary antibodies. […]

[2] = Cellular uptake of ManN in BCECs; format: in vitro ADME, bovine
[3] = system: β-Glucosidase; assay: β-glucosidase activity assay; format: biochemical, almond; details: up to 2 mM
Description: a-mannosidase activity was measured using substrate p-nitrophenyl α-mannopyranoside (1 mM). Enzyme from Jack Bean ([…]) (final concentration of 0.077 U) was incubated at 37° C. in a final volume of 50 μl of 50 mM potassium phosphate buffer, pH 7.5. α-glucosidase was assayed with substrate p-nitrophenyl α-glucoside (7 mM). Enzyme from Saccharomyces cerevisiae-type 1 (Sigma, G5003) (final concentration of 0.1 U) was incubated at 37° C. in a final volume of 50 μl of PBS, pH 7.5. β-Glucosidase was assayed with substrate 4-nitrophenyl β-D-glucopyranoside (Roche). Enzyme from almond (Sigma, G0395) (final concentration of 0.002 U) was incubated at 37° C. in a final volume of 50 μl of PBS, pH 7.5 containing 1% SDS. The incubation was stopped by addition of an equal volume of acid-based stop solution (R&D systems, 895032). Enzymatic activity was measured at 405 nm. α-glucosidase from Saccharomyces cerevisiae type I ([…]) with p-nitrophenyl α-D-glucopyranoside (Sigma, N1377) as the substrate.

[4] = ManN stability in wound fluid from S. aureus infected mice; format: in vitro ADME, mouse; details: up to 24 hours at 37° C.
Description: To test ManN stability in wound fluid collected from mice with skin infection as described below, 1.5 μl of 5% ManN solution was added to each 200 μl wound fluid which was first diluted 1:1 (v/v) with PBS. At each time point, samples were taken from 37° C. incubator and stored at −80° C. Plasma proteins were precipitated by adding ice cold acetonitrile to plasma: acetonitrile 1:3 (v/v) ratio. Samples were kept over ice for 1 hr and then centrifuged at 12000 g for 10 min at 7° C. to form a pellet. Supernatants were transferred to other tubed, dried down on a Speed Vac and then reconstituted in UltraPure distilled water and filtered through pre-washed Nanosep 3K Omega filters (Pall Corporation). The filtrate was dried down on Speed Vac. The dry samples were dissolved in 100 μl of water and 2 μL plasma or wound fluid sample was subjected to HPLC analysis. Neutral and amino sugars were separated on a Dionex CarboPac™ PA1 column 4 mm×250 mm with 4 mm×50 mm guard column. An isocratic gradient of 19 mM sodium hydroxide with 0.95 mM sodium acetate was used at a flow rate of 1 ml/min with 20 min run. Data was collected using the Dionex ICS-3000 HPLC system with pulsed amperometric detector using standard Quad waveform. ManN was identified and quantified by comparison with monosaccharide standard using Thermo Scientific Chromeleon software. No ManN samples served as negative controls. […]

[5] = system: human retinal microvascular EC (hRMECs); assay: hRMEC proliferation assay; format: cell-based
Description: Proliferation assays with BCECs and BRECs were performed. Log-phase growing BCECs or BRECs (passage <10) were trypsinized, re-suspended and seeded in 96-well plates (no coating) in low-glucose DMEM supplemented with 10% bovine calf serum, 2 mM glutamine, and antibiotics (growth medium), at a density of 1200-1500 cells per well in 200 μl volume. All reagents were added at the indicated final concentrations. After 3-6 days, cells were incubated with AlamarBlue for 4 hrs. Fluorescence was measured at 530 nm excitation wavelength and 590 nm emission wavelength. The experiments were repeated at least three times. To create a hypoxic condition, cells were placed in a hypoxia incubator with a mixture of gas consisting of 1% 02, 5% CO2 and 94% Nz. On each 96-well plate, untreated and VEGF-treated (10/ng/ml) wells were included to monitor plate-to-plate variations. 20% methanol or 0.05% DMSO served as negative controls. 0.05% DMSO served as negative controls when Cas was tested in these cells. Human RMVECs and human adult DMVECs were split into Gelatin-coated 96 wells (2000 cells per well) in low glucose DMEM containing 10% FBS. 1200 cells/well was set up for proliferation assay in low glucose media containing FBS. Data was collected at day 4 or 5. HUVEC (p7-10) were grown on gelatin-coated plate until it reached 70-80% confluency.

SMILES: N[C@H](C=O)[C@@H](O)[C@H](O)[C@H](O)CO [ManN, 2-Amino-2-deoxy-D-mannose]
- molecular mass change of bFGFR1 or β1 integrin in non-ECs [1]: induce molecular mass change
- cell entry and accumulation [2]: entered and accumulated inside the cells in a concentration-dependent manner
- ManN detected in 1 mg cell lysate ([2]; 400 uM ManN for 2 hours): 0.66 nmol
- effect on β-glucosidase [3]: No effect
- loss of free ManN on incubation with wound fluid [4]: No significant loss of free ManN
- additivity with VEGF on proliferation [5]: dose-dependent additivity with VEGF
- toxicity ([5]; at 5 mM): minimal toxicity
